Measurements: the supplement of paper PMC10307832

Experiments:
Experiment in all cases: relative viability (nuclei count vs DMSO), 5 days (fraction); higher = more cells survive
CUDC-101 = compound: C#Cc1cccc(Nc2ncnc3cc(OC)c(OCCCCCCC(=O)NO)cc23)c1 [CUDC-101]
Procedure, shortened: (§1)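 Viability was defined as treated-well nuclei divided by vehicle-well nuclei, with the median taken over replicate plates. Cells from lung cancer lines sat overnight at 37 °C in 1536-well plates, received five √10-spaced library-drug doses by pinning on vehicle-anchored plates, and grew 5 days without medium change before one-step fixation, permeabilisation and Hoechst staining, 4× imaging and MetaXpress nuclear counts. Only plates with control CV under 25% and at least one doubling were kept.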

Vandetanib = compound: COc1cc2/c(=N/c3ccc(Br)cc3F)nc[nH]c2cc1OCC1CCN(C)CC1 [Vandetanib]
Procedure, shortened: as §1

NVP-TAE684 + Navitoclax = compound: COc1cc(N2CCC(N3CCN(C)CC3)CC2)ccc1Nc1ncc(Cl)c(Nc2ccccc2S(=O)(=O)C(C)C)n1 [NVP-TAE684] + CC1(C)CCC(c2ccc(Cl)cc2)=C(CN2CCN(c3ccc(C(=O)NS(=O)(=O)c4ccc(N[C@H](CCN5CCOCC5)CSc5ccccc5)c(S(=O)(=O)C(F)(F)F)c4)cc3)CC2)C1 [Navitoclax] (partner 0.5 µM)
Procedure, shortened: (§2)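 Relative viability was taken as the ratio of nuclei in treated wells to nuclei in vehicle wells. Lung cancer cell lines in 1536-well plates received compounds by pin tool one day after seeding, either one drug alone or a fixed anchor-drug dose plus five library-drug doses (not always all listed) in √10 steps. Nuclei were counted on 4× images after 5 days of treatment, and values are medians of duplicate plates.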

Vandetanib + Pemetrexed = compound: COc1cc2/c(=N/c3ccc(Br)cc3F)nc[nH]c2cc1OCC1CCN(C)CC1 [Vandetanib] + Nc1nc2[nH]cc(CCc3ccc(C(=O)N[C@@H](CCC(=O)O)C(=O)O)cc3)c2c(=O)[nH]1 [Pemetrexed] (partner 0.2 µM)
Procedure, shortened: as §2

Cell Line	relative viability (CUDC-101; 0.01 µM)	relative viability (CUDC-101; 0.03162 µM)	relative viability (CUDC-101; 0.1 µM)	relative viability (CUDC-101; 0.3162 µM)	relative viability (CUDC-101; 1 µM)	relative viability (Vandetanib; 0.02 µM)	relative viability (Vandetanib; 0.06325 µM)	relative viability (Vandetanib; 0.2 µM)	relative viability (Vandetanib; 0.6325 µM)	relative viability (Vandetanib; 2 µM)	relative viability (NVP-TAE684 + Navitoclax; first compound 0.2 µM)	relative viability (NVP-TAE684 + Navitoclax; first compound 0.6325 µM)	relative viability (NVP-TAE684 + Navitoclax; first compound 2 µM)	relative viability (Vandetanib + Pemetrexed; first compound 0.02 µM)	relative viability (Vandetanib + Pemetrexed; first compound 0.06325 µM)	relative viability (Vandetanib + Pemetrexed; first compound 0.2 µM)	relative viability (Vandetanib + Pemetrexed; first compound 0.6325 µM)	relative viability (Vandetanib + Pemetrexed; first compound 2 µM)
BEN	1.11	0.833	1.06	0.856	0.708	0.941	0.916	0.886	0.933	0.988	0.188	0.0569	0.0697	0.725	0.67	0.635	0.714	0.516
CAL-12T	1.16	1.03	0.993	1.05	0.951	1.07	0.909	0.954	0.885	0.729	1.35	1.18	0.407	1.14	1.2	1.32	1.18	1.17
COR-L23	1.11	0.99	1.05	0.974	0.641	0.974	0.93	1.02	1.08	1.06	1.12	0.943	0.544	0.179	0.197	0.223	0.21	0.187
COR-L 105	0.951	1.01	0.815	0.906	0.482	0.936	0.875	0.911	0.641	0.457	0.717	0.74	0.593	1.17	1.13	1.09	1.07	0.843
ChaGo-K-1	0.923	0.965	1.02	1.06	0.787	1.01	1.01	1.01	0.998	0.984	1.54	0.644	1.03	0.257	0.271	0.259	0.255	0.263
EKVX	1.02	1.04	0.883	1.1	0.772	1	0.928	0.925	0.773	0.608	0.994	0.907	0.613	0.385	0.373	0.459	0.349	0.363
EMC-BAC-2	1.05	0.966	1.13	0.9	0.616	1.03	0.981	0.929	1.02	0.918	1.12	1.13	0.695	0.473	0.44	0.448	0.427	0.459
EPLC-272H	1.04	0.9	0.838	0.79	0.418	0.941	0.834	0.975	0.941	0.923	1.02	–	1.48	0.447	0.299	0.399	0.341	0.287
